From article PMC5180209 (Structure (London, England : 1993), 2016)

Molecular target: B56 (Homo sapiens, UniProt Q13362)
Test: Isothermal titration calorimetry
Type: binding
Settings: ITC

| reduction of binding to B56 on removing residue 676 altogether (668KLpSPIIED675 compared with the 668-676 peptides) | increase of binding affinity for B56 as the salt concentration is reduced (salt concentration 300 mM to 150 mM) | Substance |
| --- | --- | --- |
| ~ 1.7 fold |  | KLpSPIIED |
|  | ~ 3.6 fold | KLpSPIIEDE |
